In patent US9408854B2, “Methods and systems for pharmacogenomic treatment of cardiovascular conditions” (ROSTAQUO S.P.A., priority 2009, dated 2016):

Test system: hypertensive patients
Assay: Two separate studies: blood pressure change with HCTZ, Losartan and rostafuroxin in patients carrying profile 4, 8 or 9
Type: in vivo, human
Details: preliminary data; for modification in blood pressure: individuals carrying profile 4
From the text: In particular, individuals carrying profile 4 show a modification in blood pressure of: −12.3±1.5 mmHg with HCTZ; −11.3±1.7 with Losartan and −18.74±1.8 mmHg with rostafuroxin; individuals with profile 8 show the a decrease in blood pressure of −11.3±1.2 with HCTZ; −11.6±1.3 with Losartan and −15.2±1.5 mmHg with rostafuroxin; individuals with profile 9 show the a decrease in blood pressure of −11.9±1.2 with HCTZ; −11.4±1.4 with Losartan and −15.2±1.5 mmHg with rostafuroxin.

## NS(=O)(=O)c1cc2c(cc1Cl)NCNS2(=O)=O [HCTZ, 6-chloro-1,1-dioxo-3,4-dihydro-2H-1,2,4-benzothiadiazine-7-sulfonamide]
  modification in blood pressure: −12.3±1.5 mmHg
Individuals with profile 8
  decrease in blood pressure: −11.3±1.2 mmHg
Individuals with profile 9
  decrease in blood pressure: −11.9±1.2 mmHg

## CCCCc1nc(Cl)c(CO)n1Cc1ccc(-c2ccccc2-c2nnn[nH]2)cc1 [Losartan, (2-butyl-4-chloro-1-{[2′-(1H-tetrazol-5-yl)biphenyl-4-yl]methyl}-1H-imidazol-5-yl)methanol]
  modification in blood pressure: −11.3±1.7 mmHg
Individuals with profile 8
  decrease in blood pressure: −11.6±1.3 mmHg
Individuals with profile 9
  decrease in blood pressure: −11.4±1.4 mmHg
